Data: the supplement of paper PMC13380429

Assays:
Conditions in all cases: 72 h
Caco-2 [1] = assay: cell viability relative to DMSO; higher = less toxic
Calu-3 [2] = assay: as above
HepG2 [3] = assay: as above
Vero E6 [4] = assay: as above
Caco-2 [5] = assay: relative viability EC50 (midpoint between 100% and the lowest measured viability); higher = less toxic
HepG2 [6] = assay: as above
Vero E6 [7] = assay: as above
Caco-2 [8] = assay: drug sensitivity score (DSS) for viability; higher = more toxic; extreme values may be limits of the assay
Calu-3 [9] = assay: as above
HepG2 [10] = assay: as above
Vero E6 [11] = assay: as above
U2OS [12] = assay: cell viability relative to DMSO; higher = less toxic
Calu-3 [13] = assay: relative viability EC50 (midpoint between 100% and the lowest measured viability); higher = less toxic
U2OS [14] = assay: as above
U2OS [15] = assay: drug sensitivity score (DSS) for viability; higher = more toxic; extreme values may be limits of the assay

Compound	cell viability (Caco-2 [1]; 1 nM)	cell viability (Caco-2 [1]; 10 nM)	cell viability (Caco-2 [1]; 100 nM)	cell viability (Caco-2 [1]; 1000 nM)	cell viability (Caco-2 [1]; 10000 nM)	cell viability (Calu-3 [2]; 1 nM)	cell viability (Calu-3 [2]; 10 nM)	cell viability (Calu-3 [2]; 100 nM)	cell viability (Calu-3 [2]; 1000 nM)	cell viability (Calu-3 [2]; 10000 nM)	cell viability (HepG2 [3]; 1 nM)	cell viability (HepG2 [3]; 10 nM)	cell viability (HepG2 [3]; 100 nM)	cell viability (HepG2 [3]; 1000 nM)	cell viability (HepG2 [3]; 10000 nM)	cell viability (Vero E6 [4]; 1 nM)	cell viability (Vero E6 [4]; 10 nM)	cell viability (Vero E6 [4]; 100 nM)	cell viability (Vero E6 [4]; 1000 nM)	cell viability (Vero E6 [4]; 10000 nM)	relative viability EC50 (Caco-2 [5])	relative viability EC50 (HepG2 [6])	relative viability EC50 (Vero E6 [7])	drug sensitivity score (Caco-2 [8])	drug sensitivity score (Calu-3 [9])	drug sensitivity score (HepG2 [10])	drug sensitivity score (Vero E6 [11])	cell viability (U2OS [12]; 1 nM)	cell viability (U2OS [12]; 10 nM)	cell viability (U2OS [12]; 100 nM)	cell viability (U2OS [12]; 1000 nM)	cell viability (U2OS [12]; 10000 nM)	relative viability EC50 (Calu-3 [13])	relative viability EC50 (U2OS [14])	drug sensitivity score (U2OS [15])
CCOC(=O)N1c2ccc(C(F)(F)F)cc2[C@@H](N(Cc2cc(C(F)(F)F)cc(C(F)(F)F)c2)C(=O)OC)C[C@H]1CC	108%	108%	100%	101%	87.2%	96.4%	98.9%	98.4%	86%	69%	99.3%	106%	94.3%	93.6%	75.5%	98.3%	99.1%	96.2%	98.4%	85.2%	> 10 µM	> 10 µM	> 10 µM	0.1	2.8	1.5	0.4								
CNC(=O)c1c(F)cccc1Nc1nc(Nc2cc3c(cc2OC)CCN3C(=O)CN(C)C)nc2[nH]ccc12	103%	93.4%	92.3%	85.7%	52.8%	99.4%	104%	103%	95.1%	91.3%	100%	101%	77.3%	53%	56.5%	101%	97%	94.1%	93.4%	101%			> 10 µM	4.1	0	11.5	0	97.7%	98.9%	100%	87.9%	78.5%	> 10 µM	> 10 µM	2
COc1ccc(-n2[nH]c3c4c(ncc3c2=O)CCCCC4)cc1	99.9%	107%	95.7%	107%	94.2%	110%	98.7%	99.8%	97.2%	112%						102%	105%	100%	98.2%	99.6%	> 10 µM		> 10 µM	0	0		0	96.4%	100%	94.2%	103%	95.9%	> 10 µM	> 10 µM	0
COc1cccc(-c2cc(=O)c3ccccc3o2)c1N	98.5%	108%	92.7%	95.9%	91.4%	107%	103%	103%	106%	83.7%	99.7%	87.8%	94.1%	91.8%	64.2%	109%	108%	105%	104%	92%	> 10 µM		> 10 µM	0	0.2	2.9	0	99.5%	97.7%	98.7%	101%	92%	> 10 µM	> 10 µM	0
COc1ccccc1N1CCN(CCN(C(=O)C2CCCCC2)c2ccccn2)CC1	99.1%	101%	93.5%	102%	94%	93.6%	86.7%	99%	92.2%	84.3%						104%	102%	104%	97.2%	99.1%	> 10 µM		> 10 µM	0	0		0	95.6%	99.6%	102%	100%	95.5%	> 10 µM	> 10 µM	0
Cc1cc(C)c(N(Cc2ccccc2)S(=O)(=O)c2ccc(OCCNC(=O)c3cc4ccccc4o3)cc2)c(C(=O)NO)c1	94.1%	101%	105%	88.8%	42%	95.2%	103%	96.9%	99.4%	73.4%	93.4%	98.9%	91%	94.5%	37.8%	105%	107%	105%	104%	47%	1.77 µM	2.43 µM	3.55 µM	5	1.1	4.3	2.5	104%	96.3%	100%	98.5%	63.9%			1.9
Cc1cc(CN2CCN(c3c(Br)cnc4nc(-c5ccc(N6CCN(C)CC6)cc5)[nH]c34)CC2)no1	101%	99.3%	99.7%	96.8%	84.7%	97.8%	103%	94.2%	114%	105%	101%	98%	106%	65.6%	59.9%	96%	96.6%	94.1%	83.6%	84.2%	> 10 µM		> 10 µM	0.6	0	6	1.5	98.7%	106%	98.1%	102%	74.8%	> 10 µM		0.8
